Test results as given in PMC7069095, “A cell-permeable peptide-based PROTAC against the oncoprotein CREPT proficiently inhibits pancreatic cancer” (Theranostics, 2020).

How the values were obtained:
[1] = target: T1, endogenous CREPT protein in Panc-1 cells (Homo sapiens, UniProt Q9NQG5); assay: Immunofluorescence staining of CREPT in cells treated with FITC-PRTC; type: cell-based; conditions: immunofluorescence with anti-CREPT antibody
T1 construct: endogenous protein level of CREPT in Panc-1, AsPc-1 and MIA-PaCa-2 cells; endogenous in cells; host or cells: Panc-1, AsPc-1, MIA PaCa-2
T1 sequence (Q9NQG5 1-326): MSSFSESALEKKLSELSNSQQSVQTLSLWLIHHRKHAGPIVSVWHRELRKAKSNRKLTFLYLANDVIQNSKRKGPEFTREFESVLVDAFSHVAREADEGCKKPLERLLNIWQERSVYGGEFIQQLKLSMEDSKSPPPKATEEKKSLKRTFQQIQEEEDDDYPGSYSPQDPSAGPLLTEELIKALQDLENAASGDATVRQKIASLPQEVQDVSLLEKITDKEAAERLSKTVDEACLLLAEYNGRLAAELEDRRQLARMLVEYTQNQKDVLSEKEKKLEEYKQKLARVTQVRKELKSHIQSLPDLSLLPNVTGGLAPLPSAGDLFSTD
Procedure: After adherence, cells were treated with 10 μM PRTC for 24 h. The cells were then gently washed three times with warm PBS, fixed with 4% paraform and incubated with 0.25% Triton X-100 in PBST. Next, the cells were blocked in 5% BSA for 1 h at room temperature and incubated with an antibody against CREPT at 4 °C overnight. Cells were washed 3 times with PBST (0.1% Tween-20) and incubated with TRITC-labeled goat anti-mouse IgG antibody (Jackson ImmunoReseach) at a dilution rate of 1:100 at room temperature for 1 h. Coverslips were imaged by a confocal laser scanning microscope (OLYMPUS).
(§1) To address whether PRTC could induce CREPT degradation, we examined the endogenous protein level of CREPT in Panc-1, AsPc-1 and MIA-PaCa-2 cells in the presence of different dosages of PRTC. […] Consistently, treatment with PRTC led to decreases in CREPT protein at different times (Figure 5B, S3A). […] To further visualize the degradation process, we stained the endogenous CREPT protein with an antibody against CREPT in the cells treated with FITC-labeled PRTC.

[2] = system: Panc-1 cells; assay: Confocal fluorescence imaging of FITC labeled peptides in cells; type: cell-based; conditions: confocal microscope, Panc-1 cells
Procedure: To examine whether PRTC could permeate into pancreatic cancer cells, we synthesized fluorescein isothiocyanate (FITC) labeled PRTC, PRTC-m, PRTC-v, PRTC-r (PRTC without RRRRK) as well as TAT (a widely used cell penetrating peptide, as a positive control).
Figure 3 Identification of the permeability of PRTC in Panc-1 cells. (A) Entry of FITC- labeled peptides into Panc-1 cells tested by flow cytometry. FITC-TAT is the positive control. Measurements were performed in triplicate. (B) Quantification of cellular uptake of Panc-1 cells treated with different concentrations of FITC-PRTC. (C) Confocal microscope images of Panc-1 cells treated with 10 μM FITC labeled peptides. Scale bars, 10 μm. (D) Confocal microscope images of Panc-1 cells treated with different dosages of FITC-PRTC. Scale bars, 10 μm.

[3] = target: T2, ubiquitinated CREPT in Panc-1 cells (Homo sapiens, UniProt Q9NQG5); assay: Endogenous IP of CREPT with ubiquitin (Co-IP); type: cell-based; conditions: 10 μM peptide for 24 h, IP: CREPT, IB: anti-ubiquitin
T2 construct: endogenous protein level of CREPT in Panc-1, AsPc-1 and MIA-PaCa-2 cells; endogenous in cells; host or cells: Panc-1, AsPc-1, MIA PaCa-2
T2 sequence (Q9NQG5 1-326): T1 sequence (Q9NQG5 1-326)
Procedure: (§2) For exogenous immunoprecipitation assays, HEK293T cells were plated in 60 mm dishes and then transfected with the indicated plasmids. After 24 h, cells were harvested using RIPA buffer (50 mM Tris-HCl pH 8.0, 2 mM EDTA pH 8.0, 150 mM NaCl, 1% NP-40, 0.5% sodium deoxycholate, 0.1% SDS) with mixed protease inhibitors. Cell lysates were incubated with 2 μg of the indicated antibodies and 30 μL of protein A/G-Sepharose beads at 4 °C overnight. Beads were eluted five times with lysis buffer (50 mM Tris-HCl pH 7.6, 1 mM EDTA pH 8.0, 165 mM NaCl, 0.5% NP-40), and thereafter, a western blot assay was performed to analyze the association by using the indicated antibodies. Western blot was performed as previously reported. Anti-β-actin and anti-Flag antibodies were purchased from Sigma. Anti-Myc antibody was purchased from Santa Cruz Biotechnology. Antibody against CREPT was produced in the laboratory.
In addition, a Co-IP experiment was performed in Panc-1 cells treated with 10 μM PRTC, PRTC-m or PRTC-v for 24 h. […] In the absence of MG132, the level of ubiquitinated CREPT was further increased by PRTC (Figure 6C, compare lane 1 and lane 2).
Figure 6 The degradation of CREPT by PRTC is dependent on its VHL ligand. (A) Immunoblot of CREPT following 24 h incubation with different dosages of PRTC or PRTC-v in Panc-1 cells. (B) Immunoblot of CREPT exposed to 10 μM PRTC or PRTC-v for different time points in Panc-1 cells. (C) Endogenous IP experiment of CREPT with ubiquitin treated with 10 μM PTRC, PTRC-m or PTRC-v in Panc-1 cells. IP: CREPT, IB: Anti-ubiquitin.

[4] = Circular dichroism (CD) spectroscopy; type: physicochemical; conditions: 0.1 mg/mL in deionized water, room temperature
Procedure: All peptides were dissolved in the deionized water at a final concentration of 0.1 mg/mL. The CD spectra were measured by using a 1 nm bandwidth with a 1 nm step resolution from 190 to 260 nm at room temperature (Jasco spectropolarimeter, Japan). Final spectra were obtained from the average of three parallel scans after subtracting a spectrum of deionized water recorded under the same conditions. Each sample was scanned thrice and the averaged spectrum was smoothed. The helicity were calculated by CDNN 2.1 [59], [60].

[5] = system: AsPc-1 cells; assay: Cell proliferation assay (CCK-8); type: cell-based; conditions: 10 μM
Procedure: (§3) Cells were seeded into 96-well plates (1000 cells per well) and cultured for the indicated times. Cell viability was evaluated using a CCK-8 kit (Solarbio, Beijing, China). The value of OD450 was calculated by spectrophotometer and presented as the mean ± standard deviation (SD) from three individual experiments. […]
CellproliferationassayofAsPc-1cellstreatedwith deionizedwater(Ctrl), 10μMPRTC,10μM […]
(§4) (1 picture or pasted object on this page, not shown here)

[6] = system: MIA PaCa-2 cells; assay: Cell proliferation assay (CCK-8); type: cell-based; conditions: 10 μM
Procedure: as §3
PaCa-2cells treatedwith deionizedH 2O(Ctrl),10μMPRTC, PRTC-mandPRTC-v. […]
as §4

[7] = target: T1, endogenous CREPT protein in Panc-1 cells; assay: Western blot of endogenous CREPT (degradation); type: cell-based; conditions: different dosages (24 h) or time points (10 μM)
Procedure: as §2, §1
Figure 5 PRTC induces the ubiquitination and proteasome- dependent degradation of the endogenous CREPT protein. (A) Immunoblot of CREPT following 24 h incubation with different dosages of PRTC or PRTC-m in Panc-1 cells. (B) Immunoblot of CREPT exposed to 10 μM PRTC or PRTC-m for different times in Panc-1 cells. (C) Western blot analysis of CREPT following 24 h incubation with 10 μM PTRC in Panc-1 cells. MG132 is an inhibitor of proteasome activity. (D) Immunofluorescence visualization of Panc-1 cells after treatment with PRTC for 24 h. Cells were stained with anti-CREPT antibody. Scale bars, 20 μm.

endogenous CREPT protein at 24 h [1]	localization of FITC labeled peptides in the cells ([2]; 10 μM FITC labeled peptides)	subcellular localization ([2]; increasing concentration and incubation time, repeated in AsPc-1 and MIA PaCa-2 cells)	ubiquitinated CREPT proteins [3]	secondary structure by CD spectrum [4]	Helicity ([4]; 190 to 260 nm, average of three scans, calculated by CDNN 2.1) [%]	degradation of endogenous CREPT protein [7]	Substance	cell proliferation [5]	cell proliferation [6]
almost completely depleted	strong localization	localized into the nucleus					FITC-AHX-IYP (OH) AL-AHX-KDVLSEKEKKLEEYKQKLARV-RRRRK [FITC-PRTC, fluorescein isothiocyanate (FITC) labeled PRTC]		
			unable to mediate the accumulation	α-helix structure	42.2	failed to degrade	KDVLSEKEKKLEEYKQKLARV-RRRRK [PRTC-v, PRTC without the VHL ligand]	failed	failed
